# Data from patent US4057684A, “Alkyl amino-glucopyranoside derivative and process for producing the same” (priority 1975, dated 1977).
# Legend:
# [1] = tested on: Nakahara-Fukuoka sarcoma (NFS); assay: antitumor effect against Nakahara-Fukuoka sarcoma (NFS) implanted in mice; type: in vivo, mouse (ICR)
# From the text: (§1) Results of pharmacological studies for amino-glucopyranoside [I] according to the invention are described below. The test compounds which were used included methyl N-carbamyl-N'-(2-chloroethyl)-N'-nitroso-2-amino-2-deoxy-α-D-glucopyranoside and methyl N-carbamyl-N'-(2-chloroethyl)-N'-nitroso-6-amino-6-deoxy-α-D-glucopyranoside (hereinafter abbreviated to 2MCαG and 6MCαG, respectively). The control compounds which were employed were 1-(2-chloroethyl)-3-cyclohexyl-1-nitrosoourea (hereinafter abbreviated to CCNU), which had been widely applied as a control compound in such a pharmacological test of the streptozotocin derivatives, and GCNU referred to previously. The tumor systems which were used were leukemia L-1210, Nakahara-Fukuoka sarcoma, adenocarcinoma-755, ascites sarcoma 180 and Ehrlich ascites carcinoma (hereinafter abbreviated to L-1210, NFS, Ca-755, S-180A and EAC, respectively), and the antitumor activities were determined by a procedure of the National Cancer Center, Tokyo (A. Hoshi et al.: Farumashia 9, 464(1973)). The test animals which were used were ICR and BDF1 mice.
# (§2) ^a Treatment was initiated 24 hr after implantation of tumor (day 1):
# (§3) D1~5 = qd, day 1~5; D1 = day 1 only.
# (§4) ^b T/C is expressed as the tumor weight ratio in solid tumors or tota
# (§5) packed cell volume ratio in ascites tumors of treated/control.
# [2] = tested on: adenocarcinoma-755 (Ca-755); assay: antitumor effect against adenocarcinoma-755 (Ca-755) implanted in mice; type: in vivo, mouse (BDF1)
# From the text: as §1, §2, §3, §4, §5
# leukemia L-1210 = assay: increase in life span and survival of leukemia L-1210 implanted mice; type: in vivo, mouse (BDF1)
# From the text: as §1, §2, §3
# ^d % increase in life span (mean survival time) over controls.
# ^e 60 days survivors/total in treated group.
# [3] = peripheral white blood cell counts (bone marrow toxicity) and survival in normal male ICR mice; type: in vivo, mouse (ICR)
# Protocol: Such peripheral white blood cell counts were performed as follows: Normal male ICR mice were used in groups of tens and the test compounds for treatment were made into their respective solutions. 2MCαG and 6MCαG were dissolved in physiological saline solutions, while CCNU and GCNU were suspended in 0.5% CMC aqueous solution and 50% PEG aqueous solution, respectively. A single administration at volume of 1 ml per 100 g body weight of animal (0.1 ml/10 g) was given intraperitoneally, and the peripheral white blood cell counts were performed 3, 8 and 15 days after administration of the test compounds.
# [4] = acute toxicity (LD50) in mice; type: in vivo, mouse (ICR)
# [5] = blood sugar level / diabetogenic activity; type: in vivo, rat (male Wister); conditions: rat, in vivo
# bacteria = assay: antibacterial activity, broth dilution method
# [6] = tested on: solid as well as ascites tumor systems; assay: antitumor activity in the tumor systems (overall); type: in vivo, mouse; conditions: mouse, in vivo
# From the text: as §1
# [7] = 12.5 mg/kg/day ip D1~5, ICR mice
# [8] = 25.0 mg/kg/day ip D1~5, ICR mice
# [9] = 35.0 mg/kg/day ip D1~5, ICR mice
# [10] = 50.0 mg/kg/day ip D1~5, ICR mice
# [11] = 6.3 mg/kg/day ip D1~5, BDF1 mice
# [12] = 12.5 mg/kg/day ip D1~5, BDF1 mice
# [13] = 25.0 mg/kg/day ip D1~5, BDF1 mice
# [14] = 50.0 mg/kg/day ip D1~5, BDF1 mice
smiles,measurement,setting,value
"CO[C@H]1O[C@H](CNC(=O)N(CCCl)N=O)[C@@H](O)[C@H](O)[C@H]1O [Example 6MCαG, methyl N-carbamyl-N'-(2-chloroethyl)-N'-nitroso-6-amino-6-deoxy-α-D-glucopyranoside]",Activity,[1]; [7],- (100~71% = -)
same,T/C,[1]; [7],77.8%
same,Activity,[1]; [8],+ (70~51% = +)
same,T/C,[1]; [8],61.6%
same,Activity,[1]; [9],++ (50~21% = ++)
same,T/C,[1]; [9],38.8%
same,Activity,[1]; [10],Toxic
same,T/C,[1]; [10],34.1%
same,died/used,[1]; [10],6/6
same,antitumor effect compared with CCNU,"[1]; ip, 5 successive days",more active than CCNU
same,Activity,[2]; [11],+ (70~51% = +)
same,T/C,[2]; [11],53.4%
same,Activity,[2]; [12],+++ (20~0% = +++)
same,T/C,[2]; [12],16.3%
same,Activity,[2]; [13],+++ (20~0% = +++)
same,T/C,[2]; [13],7.6%
same,Activity,[2]; [14],Toxic
same,T/C,[2]; [14],0%
same,died/used,[2]; [14],6/6
same,antitumor effect compared with CCNU,"[2]; ip, 5 successive days",more active than CCNU
same,ILS,leukemia L-1210; 3.0 mg/kg/day ip D1~5,> 292%
same,Survivors (60 days survivors/total),leukemia L-1210; 3.0 mg/kg/day ip D1~5,2/6
same,ILS,leukemia L-1210; 6.0 mg/kg/day ip D1~5,> 639%
same,Survivors (60 days survivors/total),leukemia L-1210; 6.0 mg/kg/day ip D1~5,3/6
same,ILS,leukemia L-1210; 6.0 mg/kg/day po D1~5,> 580%
same,Survivors (60 days survivors/total),leukemia L-1210; 6.0 mg/kg/day po D1~5,4/6
same,ILS,leukemia L-1210; 10.0 mg/kg/day ip D1~5,> 645%
same,Survivors (60 days survivors/total),leukemia L-1210; 10.0 mg/kg/day ip D1~5,3/6
same,ILS,leukemia L-1210; 12.5 mg/kg/day ip D1~5,> 520%
same,Survivors (60 days survivors/total),leukemia L-1210; 12.5 mg/kg/day ip D1~5,4/6
same,ILS,leukemia L-1210; 12.5 mg/kg/day po D1~5,> 570%
same,Survivors (60 days survivors/total),leukemia L-1210; 12.5 mg/kg/day po D1~5,4/6
same,ILS,leukemia L-1210; 25.0 mg/kg/day ip D1~5,> 615%
same,Survivors (60 days survivors/total),leukemia L-1210; 25.0 mg/kg/day ip D1~5,4/6
same,ILS,leukemia L-1210; 25.0 mg/kg/day po D1~5,> 620%
same,Survivors (60 days survivors/total),leukemia L-1210; 25.0 mg/kg/day po D1~5,4/6
same,ILS,leukemia L-1210; 35.0 mg/kg ip D1 only,> 717%
same,Survivors (60 days survivors/total),leukemia L-1210; 35.0 mg/kg ip D1 only,6/6
same,ILS,leukemia L-1210; 40.0 mg/kg/day ip D1~5,> 237%
same,Survivors (60 days survivors/total),leukemia L-1210; 40.0 mg/kg/day ip D1~5,2/6
same,ILS,leukemia L-1210; 45.0 mg/kg ip D1 only,> 717%
same,Survivors (60 days survivors/total),leukemia L-1210; 45.0 mg/kg ip D1 only,6/6
same,ILS,"leukemia L-1210; 6-25 mg/kg/day, 5 successive administrations, ip or orally",520-645%
same,activity against L-1210 compared with CCNU and GCNU,"leukemia L-1210; mouse, in vivo",more active against L-1210
same,ILS,"leukemia L-1210; single ip, 35-45 mg/kg",717%
same,animals survived,"leukemia L-1210; single ip, 35-45 mg/kg",all six animals survived
same,Death rate (death/used),[3]; 40 mg/kg ip single,0/10
same,Average count of WBC,"[3]; 40 mg/kg ip single, day 3",73.2±3.5 x 10^2 WBC/mm^3
same,Average count of WBC,"[3]; 40 mg/kg ip single, day 8",105.7±3.8 x 10^2 WBC/mm^3
same,Average count of WBC,"[3]; 40 mg/kg ip single, day 15",136.9±10.0 x 10^2 WBC/mm^3
same,Death rate (death/used),[3]; 60 mg/kg ip single,0/10
same,Average count of WBC,"[3]; 60 mg/kg ip single, day 3",41.1±4.1 x 10^2 WBC/mm^3
same,Average count of WBC,"[3]; 60 mg/kg ip single, day 8",73.5±5.8 x 10^2 WBC/mm^3
same,Average count of WBC,"[3]; 60 mg/kg ip single, day 15",110.4±6.3 x 10^2 WBC/mm^3
same,Death rate (death/used),[3]; 100 mg/kg ip single,2/10
same,Average count of WBC,"[3]; 100 mg/kg ip single, day 3",31.2±2.5 x 10^2 WBC/mm^3
same,Average count of WBC,"[3]; 100 mg/kg ip single, day 8",71.9±4.9 x 10^2 WBC/mm^3
same,Average count of WBC,"[3]; 100 mg/kg ip single, day 15",99.8±10.8 x 10^2 WBC/mm^3
same,Death rate (death/used),[3]; 150 mg/kg ip single,10/10
same,Average count of WBC,"[3]; 150 mg/kg ip single, day 3",28.1±3.8 x 10^2 WBC/mm^3
same,Average count of WBC,"[3]; 150 mg/kg ip single, day 8",61.0 x 10^2 WBC/mm^3
same,incidence of leukopenia,[3]; LD10 doses,comparatively mild with rapid return to pretreatment levels
same,acute toxicity compared with GCNU or CCNU,"[3]; mouse, in vivo",much lower than that of either GCNU or CCNU
same,bone marrow toxicity,"[3]; mouse, in vivo",improved bone marrow toxicity
same,bone marrow toxicity compared with CCNU,"[3]; mouse, in vivo",less toxic
same,bone marrow toxicity compared with GCNU,"[3]; mouse, in vivo",equivalent values as GCNU
same,toxicity compared with 2MCαG,"[4]; by LD50, single administration",less toxic than 2MCαG
same,LD50,"[4]; mouse, in vivo, single administration",91 mg/kg
same,diabetogenic activity,[5],free from diabetogenic
same,antibacterial activity,bacteria,free from diabetogenic and antibacterial activities
same,antitumor activity,[6],activity against solid as well as ascites tumor systems
